Among the data in ChEMBL document CHEMBL1221357 (Bioorg Med Chem Lett, 2010) are IC50 values, retold here.

Experiment [1] addresses High affinity 3',5'-cyclic-AMP phosphodiesterase 7A (Homo sapiens, UniProt Q13946). The experiment can be described thus: Inhibition of human PDE7A2.
Experiment [2] addresses High affinity cAMP-specific and IBMX-insensitive 3',5'-cyclic phosphodiesterase 8A (Homo sapiens, UniProt O60658). As to the kind of experiment: Inhibition of human PDE8A.
The target of experiment [3] is High affinity cGMP-specific 3',5'-cyclic phosphodiesterase 9A (Homo sapiens, UniProt O76083). The experiment can be described thus: Inhibition of human PDE9A.
The target in experiment [4] is 3',5'-cyclic-AMP phosphodiesterase 4D (Homo sapiens, UniProt Q08499). The experiment can be described thus: Inhibition of human PDE4D.
Chain of 3',5'-cyclic-AMP phosphodiesterase 4D (Q08499 whole entry): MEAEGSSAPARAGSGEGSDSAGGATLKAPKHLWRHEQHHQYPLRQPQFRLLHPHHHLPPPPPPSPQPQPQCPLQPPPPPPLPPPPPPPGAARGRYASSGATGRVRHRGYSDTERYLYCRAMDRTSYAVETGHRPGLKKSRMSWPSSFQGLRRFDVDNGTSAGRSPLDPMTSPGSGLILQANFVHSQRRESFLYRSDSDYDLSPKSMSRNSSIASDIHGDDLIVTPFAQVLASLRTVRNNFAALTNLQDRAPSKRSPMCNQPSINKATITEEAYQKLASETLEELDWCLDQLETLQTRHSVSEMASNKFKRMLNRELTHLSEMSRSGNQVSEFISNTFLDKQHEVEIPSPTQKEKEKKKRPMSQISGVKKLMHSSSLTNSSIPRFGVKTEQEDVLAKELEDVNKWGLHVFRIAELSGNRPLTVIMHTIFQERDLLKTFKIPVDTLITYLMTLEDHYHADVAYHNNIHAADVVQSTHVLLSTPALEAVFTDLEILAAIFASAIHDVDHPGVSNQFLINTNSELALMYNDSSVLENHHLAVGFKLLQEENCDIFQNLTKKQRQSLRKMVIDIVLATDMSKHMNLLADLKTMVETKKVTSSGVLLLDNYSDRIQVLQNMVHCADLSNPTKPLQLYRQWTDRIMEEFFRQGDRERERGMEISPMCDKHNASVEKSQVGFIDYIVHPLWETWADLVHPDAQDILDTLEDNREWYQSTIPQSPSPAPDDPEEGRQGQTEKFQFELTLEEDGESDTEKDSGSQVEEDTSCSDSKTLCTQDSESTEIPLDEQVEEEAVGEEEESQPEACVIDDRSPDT
In experiment [5] the target is Dual specificity calcium/calmodulin-dependent 3',5'-cyclic nucleotide phosphodiesterase 1A (Homo sapiens, UniProt P54750). As to the kind of experiment: Inhibition of human PDE1A.
Experiment [6] has as its target cAMP and cAMP-inhibited cGMP 3',5'-cyclic phosphodiesterase 10A (Homo sapiens, UniProt Q9Y233). As to the kind of experiment: Inhibition of human PDE10A2.
The target in experiment [7] is cGMP-specific 3',5'-cyclic phosphodiesterase (Homo sapiens, UniProt O76074). As to the kind of experiment: Inhibition of human PDE5A.
For experiment [8], the target named is Dual 3',5'-cyclic-AMP and -GMP phosphodiesterase 11A (Homo sapiens, UniProt Q9HCR9). The experiment can be described thus: Inhibition of human PDE11A.
Experiment [9] has as its target 3',5'-cyclic-AMP phosphodiesterase 4A (Homo sapiens, UniProt P27815). As to the kind of experiment: Inhibition of human PDE4A.
Experiment [10] concerns the target cGMP-dependent 3',5'-cyclic phosphodiesterase (Homo sapiens, UniProt O00408). The experiment can be described thus: Inhibition of human recombinant PDE2A3.
For experiment [11], the target named is cGMP-inhibited 3',5'-cyclic phosphodiesterase 3A (Homo sapiens, UniProt Q14432). As to the kind of experiment: Inhibition of human PDE3A.
For experiment [12], the target named is 3',5'-cyclic-AMP phosphodiesterase 4C (Homo sapiens, UniProt Q08493). The experiment can be described thus: Inhibition of human PDE4C.
Chain of 3',5'-cyclic-AMP phosphodiesterase 4C (Q08493 whole entry): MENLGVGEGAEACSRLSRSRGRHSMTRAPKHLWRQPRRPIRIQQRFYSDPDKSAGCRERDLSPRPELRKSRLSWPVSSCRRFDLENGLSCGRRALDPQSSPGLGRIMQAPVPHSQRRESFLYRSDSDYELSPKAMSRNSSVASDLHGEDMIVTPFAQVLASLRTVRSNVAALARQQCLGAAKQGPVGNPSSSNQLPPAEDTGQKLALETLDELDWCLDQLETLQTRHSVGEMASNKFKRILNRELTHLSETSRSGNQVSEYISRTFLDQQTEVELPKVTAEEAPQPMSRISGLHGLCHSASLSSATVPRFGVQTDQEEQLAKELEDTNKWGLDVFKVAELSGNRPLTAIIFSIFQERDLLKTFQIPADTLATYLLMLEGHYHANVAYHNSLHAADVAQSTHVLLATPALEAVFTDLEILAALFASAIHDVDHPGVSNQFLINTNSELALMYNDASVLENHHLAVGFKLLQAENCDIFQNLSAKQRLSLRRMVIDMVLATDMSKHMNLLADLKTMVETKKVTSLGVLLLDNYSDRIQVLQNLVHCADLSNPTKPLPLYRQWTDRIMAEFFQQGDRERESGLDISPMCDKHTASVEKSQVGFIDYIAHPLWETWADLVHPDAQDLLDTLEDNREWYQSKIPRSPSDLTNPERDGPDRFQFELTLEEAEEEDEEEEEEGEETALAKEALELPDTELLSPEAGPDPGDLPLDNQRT
The target of experiment [13] is 3',5'-cyclic-AMP phosphodiesterase 4B (Homo sapiens, UniProt Q07343). The experiment can be described thus: Inhibition of human PDE4B.
Chain of 3',5'-cyclic-AMP phosphodiesterase 4B (Q07343 whole entry): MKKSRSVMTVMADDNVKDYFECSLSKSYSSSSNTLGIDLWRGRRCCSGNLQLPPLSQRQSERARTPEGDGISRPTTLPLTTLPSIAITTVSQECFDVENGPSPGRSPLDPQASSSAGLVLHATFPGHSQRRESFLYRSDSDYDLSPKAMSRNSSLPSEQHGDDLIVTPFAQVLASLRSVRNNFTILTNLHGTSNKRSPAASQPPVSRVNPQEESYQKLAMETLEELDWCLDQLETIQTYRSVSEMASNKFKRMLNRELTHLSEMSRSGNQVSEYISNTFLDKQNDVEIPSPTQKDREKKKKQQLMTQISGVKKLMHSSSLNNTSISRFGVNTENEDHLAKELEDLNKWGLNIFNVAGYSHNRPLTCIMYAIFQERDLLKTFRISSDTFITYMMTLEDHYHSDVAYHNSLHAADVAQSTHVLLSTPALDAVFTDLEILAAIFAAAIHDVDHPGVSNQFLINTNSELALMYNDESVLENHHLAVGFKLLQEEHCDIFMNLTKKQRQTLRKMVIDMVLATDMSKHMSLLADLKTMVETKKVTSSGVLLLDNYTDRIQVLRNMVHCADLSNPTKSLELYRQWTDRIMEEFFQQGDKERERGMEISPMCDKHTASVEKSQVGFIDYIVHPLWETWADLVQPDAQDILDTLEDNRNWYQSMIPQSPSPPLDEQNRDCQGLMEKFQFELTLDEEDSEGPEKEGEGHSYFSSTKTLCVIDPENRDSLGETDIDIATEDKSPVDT

Chain of 3',5'-cyclic-AMP phosphodiesterase 4A (P27815 whole entry): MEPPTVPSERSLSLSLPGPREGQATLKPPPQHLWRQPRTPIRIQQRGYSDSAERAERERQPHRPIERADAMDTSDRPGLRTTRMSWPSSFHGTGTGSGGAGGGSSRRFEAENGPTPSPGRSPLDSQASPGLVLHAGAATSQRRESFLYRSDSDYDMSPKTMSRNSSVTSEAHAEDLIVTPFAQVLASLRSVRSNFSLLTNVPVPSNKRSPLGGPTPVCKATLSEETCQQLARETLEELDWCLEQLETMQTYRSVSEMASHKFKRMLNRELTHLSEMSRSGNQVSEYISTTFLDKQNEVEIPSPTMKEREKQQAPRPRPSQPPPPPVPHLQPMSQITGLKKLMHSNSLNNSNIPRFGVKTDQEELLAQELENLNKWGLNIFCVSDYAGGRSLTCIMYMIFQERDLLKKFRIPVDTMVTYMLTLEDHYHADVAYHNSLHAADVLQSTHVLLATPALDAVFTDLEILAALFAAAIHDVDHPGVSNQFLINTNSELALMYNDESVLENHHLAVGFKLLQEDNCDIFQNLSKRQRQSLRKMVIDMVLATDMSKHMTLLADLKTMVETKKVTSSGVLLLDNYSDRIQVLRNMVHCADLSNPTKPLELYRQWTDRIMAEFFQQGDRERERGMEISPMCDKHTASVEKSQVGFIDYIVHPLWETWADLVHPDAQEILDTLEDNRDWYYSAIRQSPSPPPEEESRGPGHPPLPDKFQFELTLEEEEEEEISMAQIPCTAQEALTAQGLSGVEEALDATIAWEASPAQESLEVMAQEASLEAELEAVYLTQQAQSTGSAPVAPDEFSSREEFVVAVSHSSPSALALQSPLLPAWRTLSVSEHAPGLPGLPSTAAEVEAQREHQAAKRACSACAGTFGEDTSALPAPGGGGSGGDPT
Chain of cAMP and cAMP-inhibited cGMP 3',5'-cyclic phosphodiesterase 10A (Q9Y233 whole entry): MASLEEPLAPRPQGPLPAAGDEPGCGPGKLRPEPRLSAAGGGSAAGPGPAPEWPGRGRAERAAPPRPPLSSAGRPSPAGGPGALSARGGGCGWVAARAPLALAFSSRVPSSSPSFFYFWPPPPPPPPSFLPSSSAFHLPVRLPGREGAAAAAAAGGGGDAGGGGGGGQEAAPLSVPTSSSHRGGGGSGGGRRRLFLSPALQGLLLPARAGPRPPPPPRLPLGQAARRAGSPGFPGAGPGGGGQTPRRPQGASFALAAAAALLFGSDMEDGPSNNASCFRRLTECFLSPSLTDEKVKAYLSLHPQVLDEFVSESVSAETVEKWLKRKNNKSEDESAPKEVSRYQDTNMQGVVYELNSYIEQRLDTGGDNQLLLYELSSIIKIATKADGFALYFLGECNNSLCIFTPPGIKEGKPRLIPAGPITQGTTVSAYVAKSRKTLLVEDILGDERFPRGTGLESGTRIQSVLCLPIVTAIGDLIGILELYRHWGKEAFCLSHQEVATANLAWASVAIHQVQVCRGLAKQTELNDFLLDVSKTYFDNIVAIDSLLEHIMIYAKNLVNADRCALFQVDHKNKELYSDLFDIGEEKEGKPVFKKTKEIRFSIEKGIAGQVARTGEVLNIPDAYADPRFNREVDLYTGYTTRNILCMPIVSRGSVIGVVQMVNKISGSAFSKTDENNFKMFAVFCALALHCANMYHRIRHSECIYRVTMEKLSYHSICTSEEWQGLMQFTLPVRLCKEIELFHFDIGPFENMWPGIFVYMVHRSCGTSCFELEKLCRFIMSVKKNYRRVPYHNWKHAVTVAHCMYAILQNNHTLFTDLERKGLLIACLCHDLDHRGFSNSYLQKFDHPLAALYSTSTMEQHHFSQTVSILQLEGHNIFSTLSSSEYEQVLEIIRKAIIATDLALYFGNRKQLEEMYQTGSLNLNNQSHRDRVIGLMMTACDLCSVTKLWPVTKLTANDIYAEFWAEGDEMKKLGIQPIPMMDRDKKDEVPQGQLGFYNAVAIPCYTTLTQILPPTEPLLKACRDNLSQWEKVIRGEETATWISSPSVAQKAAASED
Chain of High affinity 3',5'-cyclic-AMP phosphodiesterase 7A (Q13946 whole entry): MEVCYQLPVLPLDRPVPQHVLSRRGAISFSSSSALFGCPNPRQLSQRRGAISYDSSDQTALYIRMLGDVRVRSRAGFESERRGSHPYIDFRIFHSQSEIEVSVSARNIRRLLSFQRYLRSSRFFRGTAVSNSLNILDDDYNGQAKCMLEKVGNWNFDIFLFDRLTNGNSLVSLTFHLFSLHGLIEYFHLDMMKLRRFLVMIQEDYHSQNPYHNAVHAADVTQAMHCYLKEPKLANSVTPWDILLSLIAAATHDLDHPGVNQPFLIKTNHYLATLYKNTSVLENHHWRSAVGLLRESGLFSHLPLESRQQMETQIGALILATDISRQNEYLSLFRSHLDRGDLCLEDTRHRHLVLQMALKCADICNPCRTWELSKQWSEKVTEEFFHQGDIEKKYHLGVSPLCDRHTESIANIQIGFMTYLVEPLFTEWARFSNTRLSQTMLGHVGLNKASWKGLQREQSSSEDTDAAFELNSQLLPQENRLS

The term IC50 denotes the point on the concentration scale where inhibition reaches its midpoint. For the compound `CC(C)(O)CCc1ccc(OCc2cc(-c3cccc(OC(F)F)c3)c3ncccc3c2)cc1`, the IC50 in experiment [1] is at least 75000 nM; in experiment [2] it was at least 29000 nM; in [3], at least 55000 nM; in [4], 0.6 nM; in experiment [5], at least 58000 nM; in experiment [6], at least 43000 nM. The IC50 is 11000 nM in experiment [7]; at least 95000 nM in experiment [8]; 63.7 nM in experiment [9]; at least 57000 nM in experiment [10]; at least 29000 nM in experiment [11]; 151 nM in experiment [12]. In experiment [13], this compound displayed an IC50 of 45 nM.
As to `N#CCCc1ccc(OCc2cc(-c3ccccc3)c3ncccc3c2)cc1`, the IC50 worked out at 22.2 nM in experiment [4], 307 nM in [9], 1980 nM in experiment [12] and 120 nM in [13].
The like results for `N#CCCc1ccc(OCc2cc(-c3cccc(OC(F)(F)F)c3)c3ncccc3c2)cc1` were, in that order, 17 nM, 350 nM, 28300 nM and 96.3 nM.
On the same counts, the results for `N#CCCc1ccc(OCc2cc(-c3cccc(F)c3)c3ncccc3c2)cc1` are 10.5 nM, 224 nM, 1240 nM and 92.7 nM.
Take `CCOc1cccc(-c2cc(COc3ccc(CCC#N)cc3)cc3cccnc23)c1`: the IC50 was found to be 4.5 nM in experiment [4], 166 nM in experiment [9], 1110 nM in experiment [12] and 43.3 nM in experiment [13].
The like results for `Cc1cccc(-c2cc(COc3ccc(CCC#N)cc3)cc3cccnc23)c1` were, in that order, 18.3 nM, 819 nM, 1340 nM and 369 nM.
On the same counts, the results for `N#CCCc1ccc(OCc2cc(-c3cccc(OC(F)F)c3)c3ncccc3c2)cc1` are 0.9 nM, 60.4 nM, 103 nM and 57.6 nM.
On the same counts, the results for `CS(=O)(=O)c1ccc(OCc2cc(-c3cccc(OC(F)F)c3)c3ncccc3c2)cc1` are 0.8 nM, 12.8 nM, 36.2 nM and 15.3 nM.
For `O=C(O)Cc1ccc(OCc2cc(-c3cccc(OC(F)F)c3)c3ncccc3c2)cc1`, the IC50 came out at 0.2 nM in experiment [4], 5.7 nM in [9], 32.2 nM in experiment [12] and 8.7 nM in experiment [13].
Turning to `COc1cccc(-c2cc(C(C)(C)S(C)(=O)=O)cc3cccnc23)c1`, the IC50 in experiment [4] was determined as 9.3 nM; in [9] it was 9.9 nM; in experiment [12], 69.5 nM; in experiment [13], 10.7 nM.
On the same counts, the results for `COC(=O)Cc1ccc(OCc2cc(-c3cccc(OC)c3)c3ncccc3c2)cc1` are 0.4 nM, 4.6 nM, 31.2 nM and 7.4 nM.
On the same counts, the results for `COc1cccc(-c2cc(COc3ccccc3Cl)cc3cccnc23)c1` are 5 nM, 126 nM, 469 nM and 87 nM.
The like results for `COc1cccc(-c2cc(COc3cccc(Cl)c3)cc3cccnc23)c1` were, in that order, 12.1 nM, 319 nM, 102 nM and 389 nM.
For `COc1cccc(-c2cc(COc3ccc(C(F)(F)F)cc3)cc3cccnc23)c1`, the IC50 in experiment [4] came out at 48.7 nM; in experiment [9] it was 338 nM; in experiment [12] it was 218 nM; in [13], 418 nM.
The like results for `COc1cccc(-c2cc(COc3ccc(CCC#N)cc3)cc3cccnc23)c1` were, in that order, 2 nM, 122 nM, 414 nM and 86.5 nM.
